{"source": "patent US20120219538A1", "about": "“STABILIZED PROTEIN FORMULATIONS AND USE THEREOF” (THERAPEOMIC AG, priority 2009, published 2012)", "target": "T1, salmon calcitonin (sCT) (Oncorhynchus keta, UniProt P01263)", "T1 construct": "Salmon calcitonin is a 32-amino acid polypeptide hormone; purchased Therapeomic Inc., Switzerland", "T1 sequence (P01263 83-114 limits assumed)": "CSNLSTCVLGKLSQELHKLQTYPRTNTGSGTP", "assay_type": "physicochemical", "details": "10 mM sodium citrate buffer pH 6, 1:1 molar ratio; for slope of aggregation curve: Nile red fluorescence at 620 nm; for lag time of aggregation: OD at 450 nm", "description": "Salmon calcitonin (Therapeomic Inc., Switzerland) in a final concentration of 2.5 mg/ml per well with and without the respective excipients to be tested, i.e. non-conjugated mPEG-amines and non-conjugated hydrophobic headgroups were prepared in 4 different buffer systems: 10 mM sodium acetate pH 5, 10 mM sodium citrate pH 5, 10 mM sodium citrate pH 6, 10 mM sodium phosphate buffer pH 8. Samples are prepared two times and nile red in a final concentration of 1 μM is added to one of each. Aggregation is followed in UV-transparent 96-well plates or 384-well Costar® plates from Corning (Corning Life Sciences, Schiphol, Netherlands) by a microplate reader (Tecan Safire™ microplate reader, Tecan Group Ltd, Männedorf, Switzerland) by monitoring turbidity, nile red fluorescence and intrinsic fluorescence of the protein/peptide drug or the hydrophobic head-group. After finishing the aggregation kinetics, final spectra of nile red fluorescence, UV and protein/peptide drug or hydrophobic head group fluorescence were measured.\nAggregation was checked in absence of any excipient, in presence of equimolar amounts of dansylamide, mPEG-amine 2 kD and dansyl-mPEG 2 kD, respectively.", "note": "Like-named read-outs stand apart in the source and are kept apart here."}
{"substance": "salmon calcitonin [sCT]", "values": [{"measurement": "slope of aggregation curve", "setting": "Table 2", "result": 1843, "unit": "a.u./hrs"}, {"measurement": "lag time of aggregation", "setting": "Table 2", "result": 3.5, "unit": "h"}, {"measurement": "Nile red fluorescence at 620 nm", "setting": "Table 2, time 0 hrs", "result": 1058}, {"measurement": "OD at 450 nm", "setting": "Table 2, time 0 hrs", "result": 0.10}, {"measurement": "Nile red fluorescence at 620 nm", "setting": "Table 2, time 9.5 hrs", "result": 18581}, {"measurement": "OD at 450 nm", "setting": "Table 2, time 9.5 hrs", "result": 0.22}, {"measurement": "Nile red fluorescence at 620 nm", "setting": "Table 2, time 20 hrs", "result": 27276}, {"measurement": "OD at 450 nm", "setting": "Table 2, time 20 hrs", "result": 0.63}, {"measurement": "Nile red fluorescence at 620 nm", "setting": "Table 2, time 100 hrs", "result": 25328}, {"measurement": "OD at 450 nm", "setting": "Table 2, time 100 hrs", "result": 0.68}, {"measurement": "Nile red fluorescence at 620 nm", "setting": "Table 2, time 166 hrs", "result": 24729}, {"measurement": "OD at 450 nm", "setting": "Table 2, time 166 hrs", "result": 0.64}, {"measurement": "slope of aggregation curve", "setting": "Table 3, higher detector sensitivity", "result": 5546, "unit": "a.u./hrs"}, {"measurement": "lag time of aggregation", "setting": "Table 3", "result": 4.2, "unit": "h"}, {"measurement": "OD at 450 nm", "setting": "Table 3, time 0 hrs", "result": 0.11}, {"measurement": "Nile red fluorescence at 620 nm", "setting": "Table 3, time 0 hrs, higher sensitivity of the fluorescence detector than Table 2", "result": 4560}, {"measurement": "Nile red fluorescence at 620 nm", "setting": "Table 3, time 5 hrs, higher sensitivity of the fluorescence detector than Table 2", "result": 38483}, {"measurement": "OD at 450 nm", "setting": "Table 3, time 6.2 hrs", "result": 0.15}, {"measurement": "OD at 450 nm", "setting": "Table 3, time 10 hrs", "result": 0.22}, {"measurement": "Nile red fluorescence at 620 nm", "setting": "Table 3, time 10 hrs, higher sensitivity of the fluorescence detector than Table 2", "result": 61019}, {"measurement": "Nile red fluorescence at 620 nm", "setting": "Table 3, time 13.5 hrs, higher sensitivity of the fluorescence detector than Table 2", "result": ">65000"}, {"measurement": "Nile red fluorescence at 620 nm", "setting": "Table 3, time 20 hrs, higher sensitivity of the fluorescence detector than Table 2", "result": ">65000"}, {"measurement": "OD at 450 nm", "setting": "Table 3, time 30.5 hrs", "result": 0.49}, {"measurement": "OD at 450 nm", "setting": "Table 3, time 140 hrs", "result": 0.56}]}
